Here are results for eleven compounds from PubChem BioAssay AID248 (DTP/NCI, 2004).

Where “and” joins values, the source holds several entries; their conditions need not be identical. Identical values can stand only once. Inconclusive results and toxic doses are left out.

The test system of this test is L1210 leukemia ip in BDF1 mice, survival T/C. Description: NCI In Vivo Anticancer Drug Screen. Data for tumor model L1210 Leukemia (intraperitoneal) in B6D2F1 (BDF1) mice. As to conditions: endpoint: mean survival time, higher = longer survival. The procedure, abridged: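 Mice bearing the transplanted tumor received compound or vehicle. Survival of the treated group was divided by that of the vehicle-treated control group to give the ratio.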

Where [1] appears, read: dose: 100.0 mg/kg/injection, schedule: Q01DX001 (ip), vehicle: saline.
The mark [2] stands for this setting: dose: 100.0 mg/kg/injection, schedule: Q04DX003 (ip), vehicle: saline.
[3] abbreviates: dose: 200.0 mg/kg/injection, schedule: Q01DX001 (ip), vehicle: saline.
The mark [4] stands for this setting: dose: 200.0 mg/kg/injection, schedule: Q04DX003 (ip), vehicle: saline.
[5] abbreviates: dose: 400.0 mg/kg/injection, schedule: Q01DX001 (ip), vehicle: saline.
Setting [6] is: dose: 100.0 mg/kg/injection, schedule: Q01DX009 (ip), vehicle: Klucel (hydroxypropylcellulose) (HPC).
Setting [7] is: dose: 200.0 mg/kg/injection, schedule: Q01DX009 (ip), vehicle: Klucel (hydroxypropylcellulose) (HPC).
The mark [8] stands for this setting: dose: 400.0 mg/kg/injection, schedule: Q01DX009 (ip), vehicle: Klucel (hydroxypropylcellulose) (HPC).

`COC1OC(CO)C2OC12` (centres undefined): the T/C (dose: 75.0 mg/kg/injection, schedule: Q01DX009 (ip), vehicle: saline) is 98 % of control and 107 % of control; the T/C under setting [1] is 104 % of control; the T/C under setting [2] is 107 % of control and 100 % of control; the T/C (dose: 150.0 mg/kg/injection, schedule: Q01DX009 (ip), vehicle: saline) was 110 % of control and 93 % of control; the T/C under setting [3] was 102 % of control and 96 % of control; the T/C under setting [4] is 98 % of control and 89 % of control. The T/C is, setting by setting: (dose: 300.0 mg/kg/injection, schedule: Q01DX009 (ip), vehicle: saline) 102 % of control and 100 % of control; under setting [5], 104 % of control; (dose: 400.0 mg/kg/injection, schedule: Q04DX003 (ip), vehicle: saline) 100 % of control and 104 % of control.
Turning to `CC(=O)Nc1ccc(/C=N/NC(=O)COCC(=O)N/N=C/c2ccc(NC(C)=O)cc2)cc1`, the T/C reads like this: under setting [6], 91 % of control; under setting [7], 94 % of control; under setting [8], 96 % of control.
On to `CCCOc1cc(C)c2cc(Cc3cc(C)c4nc(OCCC)cc(C)c4c3)cc(C)c2n1`, for which the T/C is 87 % of control (dose: 100.0 mg/kg/injection, schedule: Q01DX001 (ip), vehicle: other); 95 % of control (dose: 200.0 mg/kg/injection, schedule: Q01DX001 (ip), vehicle: other); 101 % of control (dose: 400.0 mg/kg/injection, schedule: Q01DX001 (ip), vehicle: other).
As to `COC(C(=O)C(O)C(C)O)C1CC2C=C3C=C(OC4CC(OC5CC(O)C(OC)C(C)O5)C(OC(C)=O)C(C)O4)C(C)C(=O)C3=C(O)C2=C(O)C1OC1CC(OC2CC(OC3CC(C)(O)C(OC(=O)C(C)C)C(C)O3)C(O)C(C)O2)C(O)C(C)O1` (centres undefined), the T/C is 121 % of control (dose: 0.25 mg/kg/injection, schedule: Q01DX001 (ip), vehicle: other); 113 % of control (dose: 0.5 mg/kg/injection, schedule: Q01DX001 (ip), vehicle: other); 111 % of control (dose: 1.0 micrograms/kg/injection, schedule: Q01DX009 (ip), vehicle: other); 111 % of control (dose: 1.0 micrograms/kg/injection, schedule: Q01DX009 (ip), vehicle: saline); 105 % of control (dose: 2.0 micrograms/kg/injection, schedule: Q01DX009 (ip), vehicle: other); 117 % of control (dose: 2.0 micrograms/kg/injection, schedule: Q01DX009 (ip), vehicle: saline). Moreover, the T/C by setting is: (dose: 4.0 micrograms/kg/injection, schedule: Q01DX009 (ip), vehicle: other) 109 % of control; (dose: 4.0 micrograms/kg/injection, schedule: Q01DX009 (ip), vehicle: saline) 117 % of control; (dose: 5.0 micrograms/kg/injection, schedule: Q01DX001 (ip), vehicle: saline) 114 % of control; (dose: 8.0 micrograms/kg/injection, schedule: Q01DX009 (ip), vehicle: other) 121 % of control; (dose: 10.0 micrograms/kg/injection, schedule: Q01DX001 (ip), vehicle: saline) 123 % of control; (dose: 16.0 micrograms/kg/injection, schedule: Q01DX009 (ip), vehicle: other) 118 % of control. In addition, the T/C is, setting by setting: (dose: 16.0 micrograms/kg/injection, schedule: Q01DX009 (ip), vehicle: saline) 117 % of control; (dose: 20.0 micrograms/kg/injection, schedule: Q01DX001 (ip), vehicle: saline) 114 % of control; (dose: 32.0 micrograms/kg/injection, schedule: Q01DX009 (ip), vehicle: saline) 112 % of control; (dose: 37.0 micrograms/kg/injection, schedule: Q01DX009 (ip), vehicle: other) 110 % of control; (dose: 40.0 micrograms/kg/injection, schedule: Q01DX001 (ip), vehicle: saline) 120 % of control; (dose: 62.5 micrograms/kg/injection, schedule: Q04DX003 (ip), vehicle: saline) 107 % of control. In addition, the T/C was 103 % of control (dose: 80.0 micrograms/kg/injection, schedule: Q01DX001 (ip), vehicle: saline); 151 % of control and 331 % of control (dose: 125.0 micrograms/kg/injection, schedule: Q01DX001 (ip), vehicle: saline); 104 % of control (dose: 125.0 micrograms/kg/injection, schedule: Q04DX003 (ip), vehicle: saline); 163 % of control (dose: 125.0 micrograms/kg/injection, schedule: Q08DX002 (ip), vehicle: saline); 116 % of control and 198 % of control and 283 % of control (dose: 250.0 micrograms/kg/injection, schedule: Q01DX001 (ip), vehicle: saline).
Regarding `CCN(CC)CCn1c(=O)c2ccccc2c2ccccc21`, the T/C is 108 % of control (dose: 50.0 mg/kg/injection, schedule: Q01DX001 (ip), vehicle: saline); 106 % of control (dose: 50.0 mg/kg/injection, schedule: Q01DX009 (ip), vehicle: saline); 103 % of control (dose: 50.0 mg/kg/injection, schedule: Q04DX003 (ip), vehicle: saline); 104 % of control under setting [1]; 111 % of control under setting [2]; 107 % of control under setting [4].
For the compound `CC(=C/C(C)(C)C)/C(C)=C/C(C)(C)C`, the T/C (dose: 100.0 mg/kg/injection, schedule: Q01DX009 (ip), vehicle: saline) is 88 % of control.
`COc1ccc(NC(=O)Nc2ccc(Cl)cc2)cc1`: the T/C by setting is: under setting [6], 97 % of control; (dose: 100.0 mg/kg/injection, schedule: Q04DX003 (ip), vehicle: Klucel (hydroxypropylcellulose) (HPC)) 104 % of control; under setting [7], 98 % of control; (dose: 200.0 mg/kg/injection, schedule: Q04DX003 (ip), vehicle: Klucel (hydroxypropylcellulose) (HPC)) 104 % of control; under setting [8], 93 % of control; (dose: 400.0 mg/kg/injection, schedule: Q04DX003 (ip), vehicle: Klucel (hydroxypropylcellulose) (HPC)) 106 % of control.
Turning to `Cc1cc2c(cc1C)N(C(=O)CCl)CCN2C(=O)CCl`, the T/C runs as follows: (dose: 5.0 mg/kg/injection, schedule: Q01DX Z (ip), vehicle: carboxymethylcellulose (CMC)) 97 % of control; (dose: 10.0 mg/kg/injection, schedule: Q01DX Z (ip), vehicle: carboxymethylcellulose (CMC)) 105 % of control; (dose: 20.0 mg/kg/injection, schedule: Q01DX Z (ip), vehicle: carboxymethylcellulose (CMC)) 100 % of control; under setting [1], 104 % of control; under setting [3], 98 % of control; under setting [5], 98 % of control.
Consider `CCOC(=O)c1[nH]c(=S)[nH]c1C(=O)OCC`, for which the T/C is 102 % of control (dose: 5.0 mg/kg/injection, schedule: Q01DX001 (ip), vehicle: saline); 102 % of control (dose: 10.0 mg/kg/injection, schedule: Q01DX001 (ip), vehicle: saline); 104 % of control (dose: 20.0 mg/kg/injection, schedule: Q01DX001 (ip), vehicle: saline); 94 % of control (dose: 40.0 mg/kg/injection, schedule: Q01DX001 (ip), vehicle: saline); 95 % of control (dose: 80.0 mg/kg/injection, schedule: Q01DX001 (ip), vehicle: saline).
As for `COc1cc2cc3c4cc(OC)c(OC)cc4cc[n+]3c(/C=C/c3ccc(Cl)cc3)c2cc1OC`, the T/C was 93 % of control and 99 % of control (dose: 100.0 mg/kg/injection, schedule: Q01DX001 (ip), vehicle: carboxymethylcellulose (CMC)); 102 % of control and 103 % of control (dose: 100.0 mg/kg/injection, schedule: Q04DX002 (ip), vehicle: carboxymethylcellulose (CMC)); 100 % of control and 103 % of control (dose: 100.0 mg/kg/injection, schedule: Q04DX003 (ip), vehicle: carboxymethylcellulose (CMC)); 99 % of control and 114 % of control (dose: 200.0 mg/kg/injection, schedule: Q01DX001 (ip), vehicle: carboxymethylcellulose (CMC)); 94 % of control and 105 % of control (dose: 200.0 mg/kg/injection, schedule: Q04DX002 (ip), vehicle: carboxymethylcellulose (CMC)); 95 % of control and 117 % of control (dose: 200.0 mg/kg/injection, schedule: Q04DX003 (ip), vehicle: carboxymethylcellulose (CMC)). Also, the T/C by setting is: (dose: 400.0 mg/kg/injection, schedule: Q01DX001 (ip), vehicle: carboxymethylcellulose (CMC)) 94 % of control and 111 % of control; (dose: 400.0 mg/kg/injection, schedule: Q04DX002 (ip), vehicle: carboxymethylcellulose (CMC)) 102 % of control and 113 % of control; (dose: 400.0 mg/kg/injection, schedule: Q04DX003 (ip), vehicle: carboxymethylcellulose (CMC)) 100 % of control and 92 % of control.
Regarding `Cc1ccc(OC(C)C(=O)O)c(C)c1` (centres undefined), the T/C is 104 % of control (dose: 100.0 mg/kg/injection, schedule: Q04DX002 (ip), vehicle: Klucel (hydroxypropylcellulose) (HPC)); 98 % of control (dose: 200.0 mg/kg/injection, schedule: Q04DX002 (ip), vehicle: Klucel (hydroxypropylcellulose) (HPC)); 95 % of control (dose: 400.0 mg/kg/injection, schedule: Q04DX002 (ip), vehicle: Klucel (hydroxypropylcellulose) (HPC)).
